Measurements taken from ChEMBL document CHEMBL3297733, “Discovery and optimization of pyrrolo[1,2-a]pyrazinones leads to novel and selective inhibitors of PIM kinases” (Bioorg Med Chem, 2013).

Columns and labels:
[1] = Oral bioavailability in BALB/c mouse at 8.2 mg/kg; assay type: ADME, organism-based; details: in vivo
[2] = target: Cytochrome P450 2C9 (Homo sapiens, UniProt P11712); assay: Inhibition of CYP2C9 (unknown origin); assay type: ADME
[3] = target: Cytochrome P450 3A4 (Homo sapiens, UniProt P08684); assay: Inhibition of CYP3A4 (unknown origin); assay type: ADME
[4] = target: Cytochrome P450 2D6 (Homo sapiens, UniProt P10635); assay: Inhibition of CYP2D6 (unknown origin); assay type: ADME
[5] = Intrinsic clearance in dog hepatocytes; assay type: ADME, cell-based, Canis lupus familiaris, Hepatocyte; details: read-out: CLH
[6] = Clearance in human hepatocytes; assay type: ADME, cell-based, Hepatocyte; details: read-out: CLH
[7] = Plasma protein binding in mouse; assay type: ADME; details: read-out: PPB (converted)
[8] = target: Serine/threonine-protein kinase pim-1 (Mus musculus) (UniProt P06803); assay: Inhibition of PIM1 in mouse BA/F3 cells assessed as phosphorylation of 4EBP1 at T37/T46 after 24 hrs by Western blotting analysis; assay type: cell-based; details: BaF3
[9] = target: Serine/threonine-protein kinase pim-1 (Mus musculus) (UniProt P06803); assay: Inhibition of PIM1 in mouse BA/F3 cells assessed as phosphorylation of BAD at S112 after 24 hrs by Western blotting analysis; assay type: cell-based; details: BaF3
[10] = target: Serine/threonine-protein kinase pim-1 (Mus musculus) (UniProt P06803); assay: Inhibition of PIM1 in mouse BA/F3 cells assessed as c-Myc degradation after 24 hrs by Western blotting analysis; assay type: cell-based; details: BaF3
[11] = tested on: RPMI-8226; assay: Cytotoxicity against human RPMI8226 cells after 72 hrs by CellTitre-Glo assay; assay type: functional, cell-based; details: RPMI-8226, 72 h
[12] = tested on: LP-1; assay: Cytotoxicity against human LP-1 cells after 72 hrs by CellTitre-Glo assay; assay type: functional, cell-based; details: LP-1, 72 h
[13] = Intrinsic clearance in human liver microsomes after 5 mins by LC-MS/MS analysis; assay type: ADME; details: read-out: CLH
[14] = target: Vascular endothelial growth factor receptor 2 (Homo sapiens, UniProt P35968); assay: Inhibition of VEGFR2 (unknown origin)
[15] = target: Proto-oncogene tyrosine-protein kinase ROS (Homo sapiens, UniProt P08922); assay: Inhibition of ROS1 (unknown origin)
[16] = target: Protein kinase C beta type (Homo sapiens, UniProt P05771); assay: Inhibition of PKC-beta (unknown origin)
[17] = target: Serine/threonine-protein kinase PLK1 (Homo sapiens, UniProt P53350); assay: Inhibition of PLK1 (unknown origin)
[18] = target: Eukaryotic translation initiation factor 2-alpha kinase 3 (Homo sapiens, UniProt Q9NZJ5); assay: Inhibition of PERK (unknown origin)
[19] = target: Serine/threonine-protein kinase 26 (Homo sapiens, UniProt Q9P289); assay: Inhibition of MST4 (unknown origin)
[20] = target: MAP kinase-interacting serine/threonine-protein kinase 2 (Homo sapiens, UniProt Q9HBH9); assay: Inhibition of MNK2 (unknown origin)
[21] = target: Maternal embryonic leucine zipper kinase (Homo sapiens, UniProt Q14680); assay: Inhibition of MELK (unknown origin)
[22] = target: Tyrosine-protein kinase Lyn (Homo sapiens, UniProt P07948); assay: Inhibition of LYN (unknown origin)
[23] = target: Tyrosine-protein kinase JAK3 (Homo sapiens, UniProt P52333); assay: Inhibition of JAK3 (unknown origin)
[24] = target: Fibroblast growth factor receptor 1 (Homo sapiens, UniProt P11362); assay: Inhibition of FGFR1 (unknown origin)
[25] = target: Ephrin type-A receptor 2 (Homo sapiens, UniProt P29317); assay: Inhibition of EphA2 (unknown origin)
[26] = target: Focal adhesion kinase 1 (Homo sapiens, UniProt Q05397); assay: Inhibition of FAK (unknown origin)
[27] = target: Mitogen-activated protein kinase 1 (Homo sapiens, UniProt P28482); assay: Inhibition of ERK2 (unknown origin)
[28] = target: Epidermal growth factor receptor (Homo sapiens, UniProt P00533); assay: Inhibition of EGFR1 (unknown origin)
[29] = Inhibition of CDK2/CYCA (unknown origin); design: species or system Homo sapiens
[30] = target: Mitotic checkpoint serine/threonine-protein kinase BUB1 (Homo sapiens, UniProt O43683); assay: Inhibition of BUB1 (unknown origin)
[31] = target: RAC-alpha serine/threonine-protein kinase (Homo sapiens, UniProt P31749); assay: Inhibition of AKT1 (unknown origin)
[32] = target: Tyrosine-protein kinase ABL1 (Homo sapiens, UniProt P00519); assay: Inhibition of Bcr-ABL (unknown origin)
[33] = target: Activated CDC42 kinase 1 (Homo sapiens, UniProt Q07912); assay: Inhibition of ACK1 (unknown origin)

Chain of Serine/threonine-protein kinase pim-1 (Mus musculus) (P06803 whole entry, looked up): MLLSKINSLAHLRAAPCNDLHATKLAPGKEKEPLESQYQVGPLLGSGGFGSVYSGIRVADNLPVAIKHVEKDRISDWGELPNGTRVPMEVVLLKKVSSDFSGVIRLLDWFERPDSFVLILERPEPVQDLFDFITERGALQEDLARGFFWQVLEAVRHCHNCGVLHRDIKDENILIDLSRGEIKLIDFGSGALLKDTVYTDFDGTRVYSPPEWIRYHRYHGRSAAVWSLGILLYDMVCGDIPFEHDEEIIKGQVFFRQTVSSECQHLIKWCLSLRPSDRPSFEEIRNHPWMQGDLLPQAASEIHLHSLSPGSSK
Chain of Cytochrome P450 2D6 (P10635 whole entry): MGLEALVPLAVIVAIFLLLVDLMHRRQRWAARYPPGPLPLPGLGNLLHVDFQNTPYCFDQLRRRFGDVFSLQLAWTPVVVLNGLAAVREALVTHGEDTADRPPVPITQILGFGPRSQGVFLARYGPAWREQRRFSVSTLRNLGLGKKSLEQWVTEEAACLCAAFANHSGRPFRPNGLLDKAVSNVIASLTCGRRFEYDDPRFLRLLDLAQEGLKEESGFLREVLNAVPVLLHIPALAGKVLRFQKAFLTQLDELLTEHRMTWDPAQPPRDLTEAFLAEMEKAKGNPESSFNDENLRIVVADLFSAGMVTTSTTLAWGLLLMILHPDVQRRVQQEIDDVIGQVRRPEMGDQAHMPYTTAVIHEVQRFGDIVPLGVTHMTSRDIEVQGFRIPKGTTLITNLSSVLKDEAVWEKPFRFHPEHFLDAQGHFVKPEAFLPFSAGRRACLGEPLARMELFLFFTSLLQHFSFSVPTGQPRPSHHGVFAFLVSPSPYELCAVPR
Chain of Proto-oncogene tyrosine-protein kinase ROS (P08922 whole entry): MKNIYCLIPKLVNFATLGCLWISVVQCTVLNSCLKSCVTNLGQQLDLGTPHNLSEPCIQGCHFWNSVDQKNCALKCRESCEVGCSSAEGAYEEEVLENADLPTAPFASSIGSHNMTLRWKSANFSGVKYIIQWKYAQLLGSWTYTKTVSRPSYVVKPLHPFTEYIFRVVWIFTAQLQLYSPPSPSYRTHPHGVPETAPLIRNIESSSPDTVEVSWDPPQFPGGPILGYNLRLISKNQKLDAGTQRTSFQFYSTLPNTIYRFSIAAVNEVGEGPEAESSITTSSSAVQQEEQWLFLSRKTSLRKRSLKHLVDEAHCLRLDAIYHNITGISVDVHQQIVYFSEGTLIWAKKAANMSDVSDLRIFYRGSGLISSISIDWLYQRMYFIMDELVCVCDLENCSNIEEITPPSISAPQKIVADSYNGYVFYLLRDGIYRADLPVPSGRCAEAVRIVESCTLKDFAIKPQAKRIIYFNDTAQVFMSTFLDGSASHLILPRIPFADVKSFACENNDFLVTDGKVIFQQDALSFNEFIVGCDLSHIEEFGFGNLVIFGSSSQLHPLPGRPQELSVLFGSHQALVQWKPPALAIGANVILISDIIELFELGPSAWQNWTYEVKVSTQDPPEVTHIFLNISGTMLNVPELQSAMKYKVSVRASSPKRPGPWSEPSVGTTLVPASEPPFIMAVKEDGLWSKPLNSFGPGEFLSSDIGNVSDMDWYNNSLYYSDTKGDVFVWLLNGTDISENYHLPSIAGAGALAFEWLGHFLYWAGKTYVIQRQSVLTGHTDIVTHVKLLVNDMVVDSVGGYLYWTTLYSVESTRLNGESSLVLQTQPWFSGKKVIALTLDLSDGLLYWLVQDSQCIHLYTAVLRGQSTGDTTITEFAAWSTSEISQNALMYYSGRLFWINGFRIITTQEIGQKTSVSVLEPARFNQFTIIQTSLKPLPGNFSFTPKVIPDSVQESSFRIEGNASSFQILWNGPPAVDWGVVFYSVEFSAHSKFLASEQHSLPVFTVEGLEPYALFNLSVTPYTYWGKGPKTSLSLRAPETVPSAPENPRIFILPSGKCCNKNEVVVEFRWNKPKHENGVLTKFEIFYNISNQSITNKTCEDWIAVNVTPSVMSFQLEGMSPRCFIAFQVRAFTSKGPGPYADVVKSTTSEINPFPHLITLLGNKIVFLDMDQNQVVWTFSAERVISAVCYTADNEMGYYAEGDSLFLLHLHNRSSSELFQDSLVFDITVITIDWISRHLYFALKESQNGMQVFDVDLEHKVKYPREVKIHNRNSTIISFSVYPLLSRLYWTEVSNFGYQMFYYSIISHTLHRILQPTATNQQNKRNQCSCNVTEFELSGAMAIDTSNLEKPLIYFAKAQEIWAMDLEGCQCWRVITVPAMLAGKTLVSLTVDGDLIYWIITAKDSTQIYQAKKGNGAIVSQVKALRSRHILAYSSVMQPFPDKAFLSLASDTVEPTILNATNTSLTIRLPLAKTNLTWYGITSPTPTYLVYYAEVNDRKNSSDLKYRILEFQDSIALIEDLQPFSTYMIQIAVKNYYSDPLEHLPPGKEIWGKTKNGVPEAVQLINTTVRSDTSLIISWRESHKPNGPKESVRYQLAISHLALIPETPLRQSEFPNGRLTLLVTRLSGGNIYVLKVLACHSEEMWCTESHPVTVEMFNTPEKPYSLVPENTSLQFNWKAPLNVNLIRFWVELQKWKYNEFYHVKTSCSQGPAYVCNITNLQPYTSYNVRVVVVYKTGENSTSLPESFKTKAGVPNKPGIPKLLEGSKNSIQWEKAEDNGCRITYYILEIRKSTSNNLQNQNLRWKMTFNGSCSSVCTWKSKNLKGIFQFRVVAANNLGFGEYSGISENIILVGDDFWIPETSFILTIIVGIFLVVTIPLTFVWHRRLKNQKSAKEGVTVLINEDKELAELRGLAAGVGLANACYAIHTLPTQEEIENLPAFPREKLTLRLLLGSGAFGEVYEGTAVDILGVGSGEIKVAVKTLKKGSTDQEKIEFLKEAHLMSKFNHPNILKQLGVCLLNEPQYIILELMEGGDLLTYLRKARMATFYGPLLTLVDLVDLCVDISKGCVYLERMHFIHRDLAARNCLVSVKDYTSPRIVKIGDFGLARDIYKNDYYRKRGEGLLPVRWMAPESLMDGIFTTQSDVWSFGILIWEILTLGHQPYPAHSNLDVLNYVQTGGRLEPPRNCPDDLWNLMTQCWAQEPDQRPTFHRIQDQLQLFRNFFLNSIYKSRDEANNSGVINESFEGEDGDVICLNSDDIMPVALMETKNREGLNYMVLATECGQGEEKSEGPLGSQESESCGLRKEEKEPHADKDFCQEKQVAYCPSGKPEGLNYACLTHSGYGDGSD
Chain of Tyrosine-protein kinase ABL1 (P00519 whole entry, looked up): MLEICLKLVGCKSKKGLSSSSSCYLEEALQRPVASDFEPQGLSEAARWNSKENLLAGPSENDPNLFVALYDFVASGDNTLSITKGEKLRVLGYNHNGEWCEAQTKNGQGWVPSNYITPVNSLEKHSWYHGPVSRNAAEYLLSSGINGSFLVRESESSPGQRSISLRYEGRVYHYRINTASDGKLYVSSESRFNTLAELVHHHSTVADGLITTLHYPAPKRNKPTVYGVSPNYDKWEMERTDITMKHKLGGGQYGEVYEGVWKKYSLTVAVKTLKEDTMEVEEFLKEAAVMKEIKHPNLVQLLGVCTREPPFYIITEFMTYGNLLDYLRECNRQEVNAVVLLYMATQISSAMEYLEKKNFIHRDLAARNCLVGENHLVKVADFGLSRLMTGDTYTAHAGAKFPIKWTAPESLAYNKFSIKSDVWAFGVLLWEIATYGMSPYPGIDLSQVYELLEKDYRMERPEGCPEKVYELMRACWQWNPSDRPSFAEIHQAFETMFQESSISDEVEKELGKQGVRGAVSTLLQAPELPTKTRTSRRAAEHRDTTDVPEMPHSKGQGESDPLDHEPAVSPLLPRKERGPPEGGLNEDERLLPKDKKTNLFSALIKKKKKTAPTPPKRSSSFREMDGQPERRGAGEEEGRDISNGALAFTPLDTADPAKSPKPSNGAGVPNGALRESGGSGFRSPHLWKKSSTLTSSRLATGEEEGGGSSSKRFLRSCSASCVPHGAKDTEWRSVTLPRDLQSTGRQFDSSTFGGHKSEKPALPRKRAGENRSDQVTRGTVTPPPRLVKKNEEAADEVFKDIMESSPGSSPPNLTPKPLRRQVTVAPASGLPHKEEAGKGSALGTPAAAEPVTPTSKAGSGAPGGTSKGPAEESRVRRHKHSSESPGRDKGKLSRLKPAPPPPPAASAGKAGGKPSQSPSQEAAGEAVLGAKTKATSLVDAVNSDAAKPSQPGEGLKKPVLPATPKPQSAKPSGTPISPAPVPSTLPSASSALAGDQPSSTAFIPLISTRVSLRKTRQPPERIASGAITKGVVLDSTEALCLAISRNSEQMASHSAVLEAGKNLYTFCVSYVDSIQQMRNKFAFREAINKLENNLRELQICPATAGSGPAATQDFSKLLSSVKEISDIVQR
Chain of Mitogen-activated protein kinase 1 (P28482 whole entry): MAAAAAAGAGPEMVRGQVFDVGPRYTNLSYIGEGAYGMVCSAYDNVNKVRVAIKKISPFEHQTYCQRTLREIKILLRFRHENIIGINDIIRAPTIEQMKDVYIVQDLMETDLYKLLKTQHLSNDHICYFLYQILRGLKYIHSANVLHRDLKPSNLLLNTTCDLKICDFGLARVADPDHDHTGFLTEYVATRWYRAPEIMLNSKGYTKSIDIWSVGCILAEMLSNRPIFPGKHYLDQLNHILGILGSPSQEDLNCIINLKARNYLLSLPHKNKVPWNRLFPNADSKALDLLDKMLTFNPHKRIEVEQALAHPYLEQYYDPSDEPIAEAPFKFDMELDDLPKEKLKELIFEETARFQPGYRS
Chain of Serine/threonine-protein kinase 26 (Q9P289 whole entry): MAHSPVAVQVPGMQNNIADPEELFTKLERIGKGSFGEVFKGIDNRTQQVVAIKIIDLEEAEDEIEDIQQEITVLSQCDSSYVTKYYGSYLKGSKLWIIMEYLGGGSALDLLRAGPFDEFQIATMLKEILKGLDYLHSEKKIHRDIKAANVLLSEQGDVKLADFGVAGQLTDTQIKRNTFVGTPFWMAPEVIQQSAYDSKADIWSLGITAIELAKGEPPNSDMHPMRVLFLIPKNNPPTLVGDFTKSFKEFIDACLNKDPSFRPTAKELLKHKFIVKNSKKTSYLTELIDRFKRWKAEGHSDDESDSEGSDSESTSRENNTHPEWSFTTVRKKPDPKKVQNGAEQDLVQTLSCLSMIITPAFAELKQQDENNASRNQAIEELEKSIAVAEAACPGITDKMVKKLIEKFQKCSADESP

bioavailability [1]: 0.65% | IC50 [2]: > 10 µM | IC50 [3]: > 10 µM | IC50 [4]: > 10 µM | CLint scaled [5]: 11 mL/min/kg | CLint scaled [6]: 5.9 mL/min/kg | fraction unbound [7]: 0.02 | inhibition [8]: Dose-dependent effect | inhibition [9]: Dose-dependent effect | inhibition [10]: Dose-dependent effect | CLint scaled [13]: 5.9 mL/min/kg | IC50 [14]: > 10 µM | IC50 [15]: > 10 µM | IC50 [16]: > 10 µM | IC50 [17]: > 10 µM | IC50 [18]: > 10 µM | IC50 [19]: > 10 µM | IC50 [20]: > 10 µM | IC50 [21]: > 10 µM | IC50 [22]: > 10 µM | IC50 [23]: > 10 µM | IC50 [24]: > 10 µM | IC50 [25]: > 10 µM | IC50 [26]: > 10 µM | IC50 [27]: > 10 µM | IC50 [28]: > 10 µM | IC50 [29]: > 10 µM | IC50 [30]: > 10 µM | IC50 [31]: > 10 µM | IC50 [32]: > 10 µM | IC50 [33]: > 10 µM
SMILES: CN1CCN(C[C@@H](NC(=O)C[C@H]2CNC(=O)c3cc(-c4cccc(Cl)c4)cn32)C2CCCCC2)CC1
IC50 [11]: 6.66 µM | IC50 [12]: 1.93 µM
